Like-named read-outs stand apart in the source and are kept apart here. Where a SMILES comes first, the peptide text is derived from it. The star is where a group is joined. Cbz = O=C(OCc1ccccc1)*
What was measured:
[1] = tested on: TSCs; type: cell-based, mouse; details: 7 days
Description: (FIG. 10A) TSCs were incubated for 7 days±FGF4 at 20%, 2%, or 0.5% O2 with the mitochondrial activator DCA. TSCs were cultured for 7 days at 20% O2,±FGF4, and with mitochondrial inhibitors antimycin A or cyanide (FIG. 10B). The cells were then lysed and assayed by qPCR for the relative levels of 5 terminal differentiation markers PL1, PL2, Plf, CtsQ, and synTa. The experiment was repeated 3 times and bars show the average±s.e.m., (a) indicates no significant difference and (b) indicates a significant difference (p<0.05) between TSCs with FGF4 removed without or with mitochondrial agonist or antagonist. Where changes in markers are significant (b), the increase or decrease due to mitochondrial agonist or antagonist is shown above the histogram bar.
RNA isolation and quantitative reverse transcription-PCR (qRT-PCR). […] Briefly, DNase-treated total RNA was isolated following cDNA preparation using QuantiTect Reverse Transcription Kit iScript (Qiagen). Assays were performed using Fast SYBR Green on a System 7500 instrument (Applied Biosystems), and a one-step program for 40 cycles. Each experiment was carried out in triplicate, and all three genes for TSC multipotency were normalized against 18S rRNA.
To test the necessity and sufficiency of mitochondrial function for TSC differentiation, 2 mitochondrial inhibitors and an agonist were used. The mitochondrial activator dichloroacetate (DCA) was tested at 0.5%-20% O2 (FIG. 10A).
Cyanide and antimycin A inhibit COX (part of mitochondrial complex IV) and complex III, respectively, and were used to inhibit the ETC and thus the generation of Δψm for 7 days of culture at optimal differentiation conditions (FIG. 10B).

[2] = tested on: mitochondrial membrane potential (ΔΨm)
Description: Mitochondrial staining by MitoTracker dye. TSC were cultured at different O2 levels at least 24 hr stained with DAPI (D21490, Invitrogen) alone or with either MitoTracker Red FM (Invitrogen), TMRM (T668), or JC-1 (T3168, Invitrogen) alone or with the uncoupler FCCP (Sigma), and analyzed under a DM-IRE2 fluorescence microscope (Leica, Germany) using Simple PCI image acquisition software (Hamamatsu, Sewickley, PA).
In more detail, TSC were cultured on coverslips in 12-well plates at different O2 levels either with or without FGF4, for 48 hr. Before experiments were conducted at low O2 tension, TSC were adapted in a hypoxia chamber (Billups-Rothenberg, CA) at the given O2 level described above for at least 24 hr. Nuclear dye 2.5 μg/ml DAPI (D21490, Invitrogen) was applied as a counterstain 1 hr before TSC were incubated alone with either 50 nM MitoTracker Red FM (M22425m, Invitrogen) for 30 min, 20 nM TMRM (T668) for 30 min, or 3.25 nM JC-1 (T3168, Invitrogen) for 45 min, or in combination with the uncoupler FCCP (1 nM, Sigma, C2920). After staining, the TSC were washed with PBS 2 times and immediately analyzed under a DM-IRE2 fluorescence microscope (Leica, Germany) using Simple PCI image acquisition software (Hamamatsu, Sewickley, PA).
The roles of FGF4 and O2 on Δψm associated with ATP production was determined. […]

[3] = molecular target: T1, AKT (Mus musculus, UniProt P31750); experiment: phospho-AKT western blot in mESCs under 200 mM sorbitol; type: cell-based; details: mESCs, 4 hr, 200 mM sorbitol
T1 construct: endogenous in cells; host or cells: mESC-D3 (ATCC)
Description: (§1) FIG. 14. […] Blots are representative of triplicate experiments. Phospho-proteins and their loading controls are grouped between black lines.
(§2) FIG. 15. […] Blots are representative of triplicate experiments.
(§3) Hyperosmotic activation of signaling enzymes. […] Zhong, 2010; Xie, 2011. […] To determine the kinetics of activation of these five kinases in the described system, mESCs were treated with 200 mM sorbitol for 1 hr. Expression levels of the activated (i.e., phosphorylated) enzymes were assayed by western blot analysis (FIG. 14), including phospho-p38MAPK, phospho-JNK, phospho-MEK1/2, and phospho-AKT (the downstream effector of PI3K signaling).
(§4) Efficacy of enzyme inhibitors.

[4] = tested on: Oct4, Nanog, and Rex1 protein in mESCs; experiment: Proteasome inhibitor effects on Oct4, Nanog, and Rex1 during sorbitol stimulation of mESCs; type: cell-based, mouse; details: 4 hr; for stress-induced loss of Oct4, Nanog, and Rex1: 200 mM sorbitol
Description: FIG. 17. MG132 proteasome inhibitor effects on Oct4, Nanog, and Rex1 during sorbitol stimulation of mESCs. mESCs were treated for 4 hr with 0 or 200 mM sorbitol±10 μM MG132 and then lysed.
FIGS. 18A-18D. Lactacystin effects on Oct4, Nanog, Rex1 during sorbitol stimulation of mESCs. mESCs were treated for 4 hr±200 mM sorbitol±25, 50 μM lactacystin, then photographed before lysing. […] ANOVA+Student-Newman-Keuls post hoc tests, Oct4 p=0.000; Nanog p=0.035; Rex1 p=0.11. FIG. 18D) mESCs were stressed with or without lactacystin and micrographs were taken at 100×. Scale bar=50 μm.
Hyperosmotic-stress-induced loss of potency TFs due to proteasomal degradation. To determine the mechanism of TF protein loss during stress, mESCs were treated with one of two proteasome inhibitors, MG132 (FIG. 17) and lactacystin (FIGS. 18A-18D). […] Oct4 loss was reversed by 75%, Nanog by 93%, and Rex1 by 310% in 4 hr of proteasome inhibition by MG132.

[5] = tested on: Oct4, Nanog, and Rex1 expression in mESC; experiment: Inhibitor only effects on Oct4, Nanog, and Rex1 expression (western blot); type: cell-based, mouse
[6] = tested on: ERK1/2; experiment: phospho-ERK1/2 western blot in mESCs under 200 mM sorbitol
Description: Cells were lysed and proteins were fractionated using SDS-PAGE, blotted, and probed for phospho-p38 (Thr180/Tyr182), phospho-JNK (Thr183/Tyr185), phospho-ERK1/2 (Thr202/Tyr204), or phospho-AKT (Ser473). Blots are representative of triplicate experiments.
Western blot analysis. Sodium dodecyl sulfate-polyacrylamide gel electrophoresis and western immunoblot analysis of mESC lysates were performed as previously described. […] Cells were harvested with cold lysis buffer (Cell Signaling) and protein was quantified by BCA assay (Pierce, Rockford, IL). Ten to twenty micrograms of aliquots were fractionated on 10% polyacrylamide precast gels (Bio-Rad, Hercules, CA), transferred to nitrocellulose membranes (Amersham Biosciences, Aylesbury, UK), probed overnight with primary antibodies, and developed as previously described. […] Protein bands were visualized using the ECL Advance Western Blotting Detection Kit (GE Healthcare, Waukesha, WI), blot was scanned to obtain an electronic image, and intensity of protein bands was quantified using Image J analysis software (rsbweb.nih.gov) and normalized to amido black staining. […] Data are expressed as the change in expression relative to no treatment at time zero.

[7] = tested on: Oct4, Nanog, and Rex1 expression in mESC; experiment: TF expression levels during hyperosmotic stress +/- enzyme inhibition in mESC monolayer culture (western blot)
Description: Histograms show relative expression of each protein when normalized to amido black expression. Error flags represent standard error of the mean (n≥3). “*” denotes significant difference from unstressed mESCs. “a” indicates significant difference from stress-only time point. ANOVA and Student-Newman-Keuls post hoc tests (P<0.05).
(FIG. 20A) mESCs were incubated±200 mM sorbitol for 0-24 hr and ±p38 inhibitor SB202190 (10 μM). mESCs were lysed, and proteins were fractionated using SDS-PAGE, blotted, and probed for Oct4 or Nanog. (FIG. 20B) Phase micrographs of mESCs following 24 hr of culture in the presence/absence of stress and p38MAPK inhibitor, SB202190. Scale bars=50 μm. (FIG. 20C) mESCs were incubated±200 mM sorbitol for 0-24 hr±either U0126 or LY294002 (25 μM). mESCs were lysed and proteins were fractionated using SDS-PAGE, blotted, and probed for Oct4 or Nanog. Histograms show relative expression of each protein when normalized to amido black expression. Error flags represent standard error of the mean (n≥3). “*” denotes significant difference from unstressed mESCs. “a” indicates significant difference from stress-only time point. ANOVA and Student-Newman-Keuls post hoc tests (P<0.05).
(FIG. 21A) mESCs were incubated±200 mM sorbitol for 0-24 hr±(A) p38MAPK inhibitor SB202190 (10 μM) or PI3K inhibitor LY294002 (25 μM); or JNK inhibitor L-JNKi-1 (2 μM). mESCs were lysed, and proteins were fractionated using SDS-PAGE, blotted, and probed for Rex1. Histograms show relative expression of each protein when normalized to amido black expression. Error flags represent standard error of the mean (n≥3). “*” denotes significant difference from unstressed mESCs. “a” indicates significant difference from stress-only time point. ANOVA and Student-Newman-Keuls post hoc tests (P<0.05). (FIG. 21B) To test the reversibility of the Rex1 loss during sorbitol stress, mESCs were incubated−200 mM sorbitol for 0-4 hr and then sorbitol was removed from some dishes for the remaining 20 hr (lane 5). Histogram is representative of two independent experiments.
Cell culture and stimulation. mESC-D3 cells (ATCC, Manassas, VA) were cultured in the absence of feeder cells in Dulbecco's modified Eagle's medium (Gibco, Grand Island, NY) supplemented with 15% mESC-screened fetal bovine serum (HyClone, Logan, UT), 2 mM L-glutamine, 1 mM sodium pyruvate, 1 mM nonessential amino acids, 0.1 mM 2-mercaptoethanol (Sigma), and 1,000 U/mL murine leukemia inhibitory factor (LIF; Millipore, Temecula, CA) on 0.1% gelatin-coated dishes at 37° C. in humidified air with 5% CO2. […] Osmolality was determined by freezing point depression using Advanced Instruments Wide Range Osmometer 3W2 (Advanced Instruments, Norwood, MA).
Enzyme inhibition. Enzyme inhibitors were chosen according to the specificity reported in the kinase inhibitor literature. […] Inhibitor concentrations were determined following dose response experiments for each inhibitor based on the range of concentrations determined from the mESC and kinase inhibitor literature.

[8] = molecular target: p38MAPK (Mus musculus, UniProt P47811); experiment: phospho-p38 western blot in mESCs under 200 mM sorbitol; type: cell-based
Description: as §1, §2, §3, §4

[9] = tested on: Trophoblast stem cells (TSCs); experiment: qPCR of lineage and multipotency markers in TSCs with or without SAPK inhibitors at 20, 2 or 0.5% O2; type: cell-based, mouse; details: TSCs + FGF4, 0.5-20% O2
Description: FIGS. 1A-1C. SAPK mediates decreased Gcm1 and Tpbpa and increased Hand1 at all O2 levels. There are greater effects as O2 deviates from the stemness optimum of 2% O2. Trophoblast stem cells (TSCs) were passaged and cultured at 20, 2, or 0.5% O2 overnight. FGF4 was replenished the next day at time zero, and SAPK inhibitor SP600125 (10 μm or 50 μM) was co-incubated with TSCs for 2 days at the indicated O2 levels±SP600125. Markers were quantitated using qPCR. (FIG. 1B) is a graph derived from data in (FIG. 1A), where the highest inhibited group was subtracted from the uninhibited group at each O2 level (the subtracted difference is shown as a color inset in the histogram bars of highest expression of each marker). […]
FIG. 2. […] RNA was isolated and quantitated using qPCR.
Cell lines and culture conditions. […] Quantitative removal of gas phase O2 requires 30 min in anaerobic bags, i.e., there was only a minimal period when 20% O2 was ambient to media that was pre-equilibrated under 0, 0.5, or 2% O2. […]
RNA isolation and quantitative reverse transcription-PCR (qRT-PCR). […] Briefly, DNase-treated total RNA was isolated following cDNA preparation using QuantiTect Reverse Transcription Kit […] (Qiagen). […]

[10] = 4 hr, 200 mM sorbitol + PD98059
[11] = 20% O2, FGF4 removed, sublethal concentration

Chain of p38MAPK (P47811 whole entry): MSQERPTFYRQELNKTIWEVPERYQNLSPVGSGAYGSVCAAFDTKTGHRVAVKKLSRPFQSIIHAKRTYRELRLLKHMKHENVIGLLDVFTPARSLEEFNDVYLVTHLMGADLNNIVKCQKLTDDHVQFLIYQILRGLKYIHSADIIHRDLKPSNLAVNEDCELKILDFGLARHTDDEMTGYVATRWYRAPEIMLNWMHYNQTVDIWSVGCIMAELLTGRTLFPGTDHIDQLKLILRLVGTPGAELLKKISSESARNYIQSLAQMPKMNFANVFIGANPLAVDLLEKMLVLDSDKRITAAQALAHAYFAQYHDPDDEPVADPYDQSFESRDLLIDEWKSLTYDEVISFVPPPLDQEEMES
T1 sequence (P31750 whole entry): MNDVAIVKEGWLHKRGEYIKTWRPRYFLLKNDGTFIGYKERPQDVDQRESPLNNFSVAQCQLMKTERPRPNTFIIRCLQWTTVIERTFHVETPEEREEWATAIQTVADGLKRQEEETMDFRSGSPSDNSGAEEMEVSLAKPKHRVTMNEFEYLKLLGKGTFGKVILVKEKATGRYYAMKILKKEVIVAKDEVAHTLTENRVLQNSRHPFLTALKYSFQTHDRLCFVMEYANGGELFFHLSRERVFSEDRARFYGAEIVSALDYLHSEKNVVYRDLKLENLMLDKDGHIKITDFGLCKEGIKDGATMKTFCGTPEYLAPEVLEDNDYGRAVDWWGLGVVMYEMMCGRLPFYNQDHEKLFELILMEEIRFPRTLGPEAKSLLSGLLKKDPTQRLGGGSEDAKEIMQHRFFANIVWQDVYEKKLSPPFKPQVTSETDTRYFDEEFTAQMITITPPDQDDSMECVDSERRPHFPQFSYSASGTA

Molecule: O=C(O)C(Cl)Cl [DCA, dichloroacetate]
- PL2 mRNA increase ([1]; 2% O2): 2 fold
- synTa mRNA increase ([1]; 2% O2): 2 fold

Molecule: N#CC(C#N)=NNc1ccc(OC(F)(F)F)cc1 [FCCP, Carbonyl cyanide 4-(trifluoromethoxy)phenylhydrazone]
- JC1 stain fluorescence [2]: no fluorescence
- effect on Δψm [2]: completely depolarizes

Molecule: O=c1cc(N2CCOCC2)oc2c(-c3ccccc3)cccc12 [LY294002]
- inhibition of AKT activation (average) [3]: 88%

Molecule: CC(C)C[C@@H](C=O)NC(=O)[C@H](CC(C)C)NC(=O)[C@H](CC(C)C)NC(=O)OCc1ccccc1 [MG132] (Cbz-Leu-Leu-Leu-aldehyde)
- reversal of stress-induced Nanog loss ([4]; 10 μM MG132, 200 mM sorbitol): 93%
- reversal of stress-induced Oct4 loss ([4]; 10 μM MG132, 200 mM sorbitol): 75%
- reversal of stress-induced Rex1 loss ([4]; 10 μM MG132, 200 mM sorbitol): 310%
- stress-induced loss of Oct4, Nanog, and Rex1 [4]: prevented

Molecule: COc1cccc(-c2cc(=O)c3ccccc3o2)c1N [PD98059]
- Nanog protein expression, inhibitor only ([5]; 24 hr inhibitor only, vs 24 hr no inhibitor, AKTi 10, LY294002 10, L-JNKi-1 2, SB202190 10, U0126 40, PD98059 20 μM): *1.54 ± 0.10%
- inhibition of ERK1/2 activation (average) ([6]; mESCs, 4 hr, 200 mM sorbitol): 30%
- Nanog expression relative to unstressed level [7, 10]: 2.5 times
- expression of Oct4 and Rex1 [7, 10]: remained at the unstressed baseline
- Oct4 recovery ([7]; 24 hr, 200 mM sorbitol + inhibitor): did not prevent

Molecule: Oc1ccc(-c2nc(-c3ccncc3)c(-c3ccc(F)cc3)[nH]2)cc1 [SB202190]
- inhibition of p38MAPK activation (average) [8]: 60%
- Nanog expression ([7]; 24 hr ongoing stress, 200 mM sorbitol + SB202190): 10%
- Oct4 expression ([7]; 24 hr, 200 mM sorbitol + SB202190, did not recover from 4-h nadir): 50 % of unstressed levels

Molecule: Oc1c2ccccc2c2c3c(cccc13)N=N2 [SP600125]
- multipotency factors Cdx2, Id2, Errβ mRNA [9]: no effect

Molecule: N#CC(=C(/N)Sc1ccccc1N)/C(C#N)=C(\N)Sc1ccccc1N [U0126]
- Nanog protein expression, inhibitor only [5]: 0.94 ± 0.15%
- Oct4 protein expression, inhibitor only [5]: 1.16 ± 0.31%
- Rex1 protein expression, inhibitor only [5]: 0.72 ± 0.06%
- inhibition of ERK1/2 activation (average) [6]: 87%
- Oct4 or Nanog loss during stress [7]: did not prevent
- Oct4 recovery [7]: prevented
- Rex1 expression [7]: remained at unstressed levels

Molecule: CC(=O)N[C@@H](CSC(=O)[C@]1([C@@H](O)C(C)C)NC(=O)[C@H](C)[C@@H]1O)C(=O)O [lactacystin]
- stress-induced loss of Oct4, Nanog, and Rex1 [4]: prevented

Molecule: antimycin A
- Ctsq mRNA inhibited [1, 11]: 81%
- PL2 mRNA inhibited [1, 11]: 98%
- synTa mRNA inhibited [1, 11]: 42%

Reference: patent US20250154611A1, “SYSTEMS AND METHODS TO DETECT STEM CELL STRESS AND USES THEREOF” (Wayne State University, priority 2014, published 2025)
